Values of other authors in US10918627B2, “Convergent and enantioselective total synthesis of Communesin analogs” (Massachusetts Institute of Technology, priority 2016, dated 2021).
≈ marks a conversion by molar mass, not a printed value.

Tests used:
[1] = Fan 2015
cardiovascular vessels = settings: Fan 2015
[2] = test system: bradycardia caused by astemidazole; settings: at different concentrations, Fan 2015
[3] = test system: third instar larvae of silkworms; settings: Hayashi 2004
[4] = test system: mouse P-388 lymphocytic leukemia cells; settings: cultured mouse P-388 lymphocytic leukemia cells; Numata 1993
[5] = test system: brine shrimp Artemia salina; settings: Jadulco 2004
[6] = test system: human leukemia cell lines; settings: array of human leukemia cell lines; Jadulco 2004

Row | Molecule | vasculogenetic activity [1] | promotion of the function of cardiovascular vessels (cardiovascular vessels) | mitigative effect on bradycardia [2] | insecticidal activity (comparative, in words) [3] | ED50 cytotoxicity [4] [µg/mL] | LD50 toxicity [5] [µg/mL] | anti-proliferative activity [6] | LD50 insecticidal ([3]; oral administration)
1 | CCC[C@H](O)CC(=O)N1CC[C@@]23c4ccccc4N[C@@H]4N(C)c5cccc6c5[C@@]42CCN([C@@H]13)[C@@H]6[C@H]1OC1(C)C [Compound 9, communesin I] | moderate vasculogenetic activity | moderately promote | significant mitigative effect |  |  |  |  | 
2 | Communesin E [Compound 3] |  |  |  | lower insecticidal activities |  |  |  | 
3 | CC(=O)N1CC[C@@]23c4ccccc4N[C@@H]4N(C)c5cccc6c5[C@@]42CCN([C@@H]6C=C(C)C)[C@@H]13 [Compound 1, (−)-Communesin F] |  |  |  | lower insecticidal activities |  |  |  | 
4 | CC(=O)N1CC[C@@]23c4ccccc4N[C@@H]4N(C)c5cccc6c5[C@@]42CCN([C@@H]13)[C@@H]6[C@H]1OC1(C)C [Compound 2, Communesin A] | moderate vasculogenetic activity | moderately promote | significant mitigative effect | lower insecticidal activities | 3.5 (≈ 7.67 µM) |  |  | 
5 | C/C=C/C=C/C(=O)N1CC[C@@]23c4ccccc4N[C@@H]4Nc5cccc6c5[C@@]42CCN([C@@H]13)[C@@H]6[C@H]1OC1(C)C [Compound 5, communesin C] |  |  |  |  |  | 1.96 | moderate anti-proliferative activity | 
6 | C/C=C/C=C/C(=O)N1CC[C@@]23c4ccccc4N[C@@H]4N(C=O)c5cccc6c5[C@@]42CCN([C@@H]13)[C@@H]6[C@H]1OC1(C)C [Compound 6, communesin D] |  |  |  | lower insecticidal activities |  | 0.57 | moderate anti-proliferative activity | 
7 | C/C=C/C=C/C(=O)N1CC[C@@]23c4ccccc4N[C@@H]4N(C)c5cccc6c5[C@@]42CCN([C@@H]13)[C@@H]6[C@H]1OC1(C)C [Compound 4, Communesin B] |  |  | significant mitigative effect | most active | 0.45 (≈ 0.885 µM) | 0.30 | moderate anti-proliferative activity | 5 μg/g of diet
